pIC50: −log10 of the molar value.

Data set [1] has as its system HepG2, PLC and Hep3B cells. Kind of data set: Analysis of proliferation (cell counter). The format is cell-based, human. The note with it: 0.2 μM. As for the experimental part:
6×10^4 cells were seeded on 12-well plates and incubated with inhibitors at different concentrations for 3 days. Cell numbers were determined at various time points after trypsinization using a cell counter (CASY, Scharfe Systems, Reutlingen, Germany). Three independent experiments were performed in triplicates.

A further data set concerns HepG2 or PLC cells. Put plainly: BrdU incorporation in cultured cells. The format is cell-based, human. The note with it: 1 μM, 24 hours. The method, then: BrdU incorporation into cell nuclei directly indicates cell proliferation. Cultured cells were grown in medium containing 10 μM 5-bromo-2′-deoxy-uridine (BrdU) for 1 hour. After removing labeling medium, cells were fixed and DNA denatured with a fixing/denaturing solution containing 2 M HCl for 30 minutes at 37° C. To analyze BrdU incorporation in vivo, 200 μl Ringer solution containing 1 mg BrdU was intraperitoneally injected into xenografted mice 2 hours prior to analysis. Mice were sacrificed and tumor tissue was fixed in 4% formaldehyde and processed for immunohistochemistry. The incorporation of BrdU into cellular DNA was detected using a monoclonal anti-BrdU antibody (Sigma, St. Louis, USA) followed by incubation with a peroxidase-conjugated secondary antibodies (Calbiochem, LaJolla, USA) at dilutions of 1:10,000.

Data set [2] relates to RNA polymerase II phosphorylation at serines 2 and 5. Put plainly: Immunoblot of RNA polymerase II phosphorylation (CDK7/CDK9 substrate). Format: cell-based, human. As for the experimental part:
We monitored levels of phosphorylation of RNA polymerase II, which is a substrate of CDK7 and CDK9, in cells treated with compound BP14 (FIG. 3). Immunoblotting analysis was performed as described in Example 33 with using appropriate antibodies for anti-phospho RNA polymerase II (S5) (Bethyl Laboratories, USA), anti-phospho RNA polymerase II (S2) (Bethyl Laboratories, USA), anti-RNA polymerase II (clone ARNA-3, Millipore) and β-actin (clone C4, Santa Cruz Biotechnology, USA).
(§1) Immunoblotting was performed as described previously (36). The primary antibodies were used at the dilutions: anti-phospho-Ser5 RNA Pol II (CDK7; Bethyl Laboratories, Montgomery, USA), 1:1,000; anti-phospho-Ser2 RNA Pol II (CDK9; Bethyl Laboratories, Montgomery, USA), 1:1,000; anti-RNA Pol II (Santa Cruz Biotechnology, Santa Cruz, USA), 1:1,000; anti-PARP (Cell Signaling Technology, Beverly, USA), 1:1,000; anti-β-actin (Sigma, St. Louis, USA), 1:2.500. Horseradish peroxidase-conjugated secondary antibodies (Calbiochem, LaJolla, USA) were used at dilutions of 1:10,000.
On the technique in general: Immunoblotting shows a protein as a band on a membrane.

Another data set relates to Mcl-1. Put plainly: Immunoblot analysis of anti-apoptotic protein Mcl-1. Format: cell-based. As to conditions: Hep3B, PLC/PRF/5 and AKH3p cell lines, 24 hours. As for the experimental part:
(§2) Effect of BP14 on cell apoptosis was complemented by immunoblot analysis of selected apoptotic proteins. For immunoblotting, cell were detached with rubber policeman and washed three times with ice-cold PBS and lysed in buffer (50 mM Tris, pH 7.4, 250 mM NaCl, 5 mM EDTA, 50 mM NaF, 1 mM Na3VO4, 1% Nonidet P40) containing mixture of protease and phosphatase inhibitors (Sigma-Aldrich, USA). 20 μg of total proteins were separated by SDS-polyacrylamide gel electrophoresis (SDS-PAGE) and transferred onto nitrocellulose membranes. Membranes were blocked in 5% milk and 0.1% Tween 20 in PBS and probed overnight with specific antibodies for PARP-1 (clone F-2; Santa Cruz Biotechnology, USA), Mcl-1 (S-19; Santa Cruz Biotechnology, USA) and β-actin (C-4, Santa Cruz Biotechnology, USA). All primary antibodies were diluted in PBS containing 5% powdered milk; 0.1% Tween 20. Peroxidase conjugated rabbit anti-mouse immunoglobulin or porcine anti-rabbit immunoglobulin antisera (DAKO, Denmark) were used as the secondary antibodies and visualised with ECL reagents (Amersham-Pharmacia, Little Chalfont, UK).

In data set [3] the test system is primary human hepatocytes (PHHs). Kind of data set: MTT cell viability assay (Example 40). Format: cell-based. As to conditions: Hepatocyte. The method, then: Non-neoplastic tissue samples from liver resections were obtained from patients undergoing partial hepatectomy for metastatic liver tumors of colorectal cancer. Experimental procedures were performed according to the guidelines of the charitable state controlled foundation HTCR (Human Tissue and Cell Research, Regensburg, Germany), with the informed patient's consent approved by the local ethical committee of the University of Regensburg. PHHs were isolated using a modified two-step EGTA/collagenase perfusion procedure as described previously (33). Viability of isolated PHHs was determined by trypan blue exclusion and cells with a viability of more than 85% were used for further work. Cells were plated on collagen-coated plates (BD Biosciences, San Jose, USA) at a density of 1.2×10^5 cells/cm^2. The medium consisted of DMEM with 10% FCS, 2 mM L-glutamine, […], 100 U/ml penicillin and supplements as follows: 125 mU/ml insulin, 7.3 ng/ml glucagon and 0.8 μg/ml hydrocortisone. Cells were incubated at 37° C. in a humidified incubator with 5% CO2 and media were changed daily.
Cell viability was determined using the 3-(4,5 dimethylthiazol-2-yl)-2,5-diphenyltetrazolium bromide (MTT) assay. Briefly, cells were seeded in triplicates at a density of 6×10^3 cells per well. […] The absorbance was measured at 620 nm by employing a microplate reader (Asys HiTech, Salzburg, Austria). […]
Background: Formazan colour is commonly taken as a measure of viable cells.

The next data set concerns PARP-1. Kind of data set: Immunoblot analysis of PARP cleavage. The format is cell-based, human. As for the experimental part:
as §2, §1

In the case of `NC1CCC(Nc2nc(NCc3ccc(-c4ccco4)nc3)c3ncn(C4CCCC4)c3n2)CC1` (stereo not shown) [BP14, N^2-(4-amino-cyclohexyl)-9-cyclopentyl-N^6-(6-furan-2-yl-pyridin-3-ylmethyl)-9H-purine-2,6-diamine], the proliferation kinetics result in data set [1] is reported as “cytostatic effect”. In addition, the “decrease of BrdU incorporation as compared to control” value in the data set with HepG2 or PLC cells is reported as “more than 2 fold”. The “RNA polymerase II phosphorylation on serine 5 (CDK7) and serine 2 (CDK9)” value in data set [2] (HepG2 and PLC cells, below 1 μM, 24 hours) is “strong reduction of RNA polymerase II phosphorylation”. In addition, in data set [2] (mainly AKH3sp and Hep3B cell lines, 24 h), the “phosphorylation at serines 2 and 5 of RNA polymerase II” value is “rapid decrease in phosphorylation at serines 2 and 5 of RNA polymerase II”. In the data set on Mcl-1, the “level of anti-apoptotic protein Mcl-1” value was “large dose-dependent decrease”. Moreover, the pIC50 (usually −log10 of the IC50, conventionally taken in molar units) in data set [3] is 4.70. Moreover, the “cleavage of PARP and p53 expression” value in the data set with PARP-1 (0.2 μM, HepG2 and p53-mutated PLC cells) was “induced cleavage of PARP and p53 expression”. The “protein level of PARP-1” value in the data set on PARP-1 (HUH-7 cells, concentration up to 3xIC50) was “no effect”. In addition, in the data set on PARP-1 (Hep3B and AHK3p cells, 24 hours), the “caspase-3-cleaved PARP-1 fragment at 89 kDa” value is “markedly observed”. Moreover, the “PARP processing in PHHs” value with PARP-1 (primary human hepatocytes) was “failed to induce PARP processing”.

For the origin of these results see patent US20150368248A1, “2-SUBSTITUTED-6-BIARYLMETHYLAMINO-9-CYCLOPENTYL-9H-PURINE DERIVATIVES, USE THEREOF AS MEDICAMENTS, AND PHARMACEUTICAL COMPOSITIONS” (UNIVERZITA PALACKEHO V OLOMOUCI, priority 2013, published 2015).
